Laboratory results published in patent US4599347A, “Tetrahydro-naphth (2.3-d) imidazole derivatives” (Hoffmann-La Roche Inc., priority 1980, dated 1986).
Counter-ions that a name gives are not always drawn. Like-named read-outs stand apart in the source and are kept apart here.

Columns and labels:
[1] = Preliminary toxicity in the mouse; conditions: in vivo, po, read-out: Prel. tox mouse
Description: Representative compounds of formula I of the invention were tested for their gastric acid secretion-inhibiting activity, for their anti-ulcer activity, as well as for their toxicity.
In Table I, which follows, the names of the compounds tested as well as the results of the testing for their gastric secretion-inhibiting activity, for their anti-ulcer activity and for their toxicity are given.

[2] = test system: gastric acid secretion; experiment: Shay test (pylorus-ligated rats, gastric acid secretion-inhibiting activity); type: in vivo, rat; conditions: female rats, i.d.; for ED50: Rattus norvegicus, 4 h
Description: The two experimental procedures described hereinafter were used to determine the gastric acid secretion-inhibiting activity: Shay test The pylorus of female rats, which had received no food for 24 hours but which had received water ad libitum, is ligatured under slight ether narcosis in accordance with Shay et al. [Gastroenterology 5, 43 (1945)]. Immediately thereafter the substances to be tested are administered intraduodenally to the animals. Four (4) hours later the animals are killed. The volume and the acidity of their gastric juice are determined and the values obtained are compared with those of control animals which were treated similarly, but had received no test substance. The ED 50 is defined as the dosage of test substance which brings about a 50% reduction of volume or acidity of the gastric juice in the treated animals compared with the control animals.

[3] = test system: acid secretion caused by 4-methylhistamine dihydrochloride; experiment: Heidenhain test (gastric pouch dogs, inhibition of 4-methylhistamine-stimulated acid secretion); type: in vivo, dog; conditions: 50% inhibition of acid secretion caused by 4-methylhistamine dihydrochloride infusion; for ED50: Canis lupus familiaris, po, read-out: Heidenhain test ED 50
Description: The two experimental procedures described hereinafter were used to determine the gastric acid secretion-inhibiting activity: Heidenhain test A part of the stomach fundus of female and male dogs is separated from the remaining stomach in the form of a pouch according to the […] technique [described by Rudick et al. in J. Surgical Research 7, 383-398 (1967)]. In the pouch there is fitted a steel cannula which is conducted externally through the abdominal wall. The secretion experiments are commenced after about 6 weeks. Before each experiment the animals receive no food for 18 hours, but receive water ad libitum. They are conscious during the experiment. A saphenous vein is cannulated for an infusion of 4-methylhistamine dihydrochloride, a selective stimulator of the histamine H2 -receptors. An appropriate infusion rate of the 4-methylhistamine dihydrochloride ([…], intravenously) is ascertained for each animal in preliminary experiments. During the entire main experiment the gastric secretion is stimulated by the infusion of 4-methylhistamine dihydrochloride, and 15 minute fractions of the gastric juice are collected continuously. As soon as volume and pH of these fractions show constant values, the test substances are administered orally. The ED 50 is defined as that dosage of test substance which brings about a 50% inhibition of the acid secretion caused by 4-methylhistamine dihydrochloride in the treated animals compared with the controls.

[4] = test system: ulcers of the duodenum; experiment: Anti-ulcer activity (ulcers of the duodenum induced by 4-methylhistamine and carbachol in guinea pigs); type: in vivo, guinea pig; conditions: i.g.; for ED50: Cavia porcellus, po, read-out: Anti-ulcer ED 50
Description: Before the beginning of the testing a group of 10 guinea pigs, body weight 280 to 320 g, of the same sex receives no food for 24 hours, but receives water ad libitum. Various doses of the test substance or of the appropriate vehicle (control) are administered intragastrically. The test is repeated on different days with other groups of guinea pigs in order to avoid the influence of daily variations.

[5] = 50% reduction of acidity of gastric juice, read-out: Shay test ED 50 Acid
[6] = 50% reduction of volume of gastric juice, read-out: Shay test ED 50 Vol

SMILES | LD50 [1] [mg/kg] | ED50 [2, 5] [mg/kg] | ED50 [2, 6] [mg/kg] | ED50 [3] [mg/kg] | ED50 [4] [mg/kg] | Shay test ED 50 Acid ([2]; 4 hours, 50% reduction of acidity of gastric juice, dihydrochloride, 240 min) [mg/kg] | Shay test ED 50 Vol ([2]; 4 hours, 50% reduction of volume of gastric juice, dihydrochloride, 240 min) [mg/kg] | Heidenhain test ED 50 ([3]; p.o., dihydrochloride) [mg/kg] | Anti-ulcer ED 50 ([4]; dihydrochloride) [mg/kg]
Cc1ccc(C[S+]([O-])c2nc3cc4c(cc3[nH]2)OCO4)nc1 (stereo not shown) [6-[[(5-methyl-2-pyridyl)methyl]sulfinyl]-5H-1,3-dioxolo(4,5-f)-benzimidazole] | 5000 | 28 | 65 | 2.3 | 14 | – | – | – | –
Cc1ccc(CSc2nc3cc4c(cc3[nH]2)OCO4)nc1 [6-[[(5-methyl-2-pyridyl)methyl]thio]-5H-1,3-dioxolo(4,5-f)benzimidazole] | – | 100 | 100 | 1.8 | 18 | – | – | – | –
Cc1ccc(CSc2nc3cc4c(cc3[nH]2)CCC4)nc1.Cl.Cl [1,5,6,7-tetrahydro-2-[[(5-methyl-2-pyridyl)methyl]thio]indeno(5,6-d)imidazole dihydrochloride] | 1250 | 28 | 50 | 3.6 | 34 | – | – | – | –
c1ccc(CSc2nc3cc4c(cc3[nH]2)OCO4)nc1 [6-[(2-Pyridylmethyl)thio]-5H-1,3-dioxolo(4,5-f)-benzimidazole.2HCl] | 1250 | 29 | 35 | 2.6 | 17 | – | – | – | –
Cc1ccc(CSc2nc3cc4c(cc3[nH]2)OCO4)nc1 [6-[[(5-Methyl-2-pyridyl)-methyl]thio]-5H--1,3-dioxolo-(4,5-f)benzimidazole dihydrochloride] | – | – | – | – | – | 65 | 75 | 2.1 | 25
CC1(C)C(=O)C(C)(C)c2cc3[nH]c(SCc4ccccn4)nc3cc21 [5,7-dihydro-5,5,7,7-tetramethyl-2-[(2-pyridylmethyl)thio]indeno(5,6-d)imidazol-6(1H)-one] | 2500 | 9 | 20 | 5.5 | 32 | – | – | – | –
